Reference: article PMC9990178 (Cell Chemical Biology, 2023)

What was measured:
[1] = tested on: Smad3 phosphorylation, α-SMA, COL1A1; assay type: cell-based, mouse; conditions: Alpha, Beta, Gamma, Delta, Omicron N protein; 20 μM, 36 h
[2] = tested on: pulmonary fibrosis induced by N protein of the Omicron variant; assay type: in vivo; conditions: mice, AAV encoding Omicron N protein

Compound: O=c1c(O)c(N2CCN(Cc3ccc(Br)cc3F)CC2)oc2ccccc12 [RMY-205, 2-(4-(4-bromo-2-fluorobenzyl)piperazin-1-yl)-3-hydroxy-4H-chromen-4-one]
- Smad3 phosphorylation induced by N protein variants [1]: abolished
- α-SMA and COL1A1 expression induced by N protein variants [1]: suppression
- pro-fibrotic effects of N protein of the Omicron variant [2]: effectively suppressed
